Experimental data: patent US20260241013A1, “TARGETED PROTEIN DEGRADATION USING PRODRUGS OF BIFUNCTIONAL COMPOUNDS THAT BIND UBIQUITIN LIGASE AND A TARGET MCL-1 PROTEIN” (Captor Therapeutics S.A., priority 2022, published 2026)
Where two headings read alike, the source gives them in different places.

Key:
Assay type in all cases: cell-based
MCL-1 protein = biological target: T1, MCL-1 protein (Homo sapiens, UniProt Q07820); experiment: MCL-1 protein degradation in MV4-11 cells, Western blot; conditions: 6 hours; for MCL-1 protein abundance: MV4-11, % of DMSO control
T1 construct: endogenous in cells; host or cells: MV4-11
T1 sequence (Q07820 whole entry): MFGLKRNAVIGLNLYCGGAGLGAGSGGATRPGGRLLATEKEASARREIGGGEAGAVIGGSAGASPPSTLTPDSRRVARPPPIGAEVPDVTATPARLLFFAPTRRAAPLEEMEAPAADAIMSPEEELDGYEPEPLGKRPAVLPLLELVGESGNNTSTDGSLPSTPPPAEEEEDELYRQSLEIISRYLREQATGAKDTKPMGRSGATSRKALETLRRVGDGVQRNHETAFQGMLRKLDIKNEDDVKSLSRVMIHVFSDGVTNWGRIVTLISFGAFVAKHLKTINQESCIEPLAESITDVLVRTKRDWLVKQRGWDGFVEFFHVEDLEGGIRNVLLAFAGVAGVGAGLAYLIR
Description: MV4-11 cells were maintained in IMDM medium, supplemented with penicillin/streptomycin and 10% Fetal Bovine Serum (FBS). MV4-11 cells were collected, centrifuged (250 rcf, 5 min), resuspended in a growth medium containing 10% FBS and counted. The cell suspension was then adjusted to 1×10^6 cells/ml using a growth medium containing 10% FBS. Afterwards, 0.5×10^6 cells were seeded on 24-well plates in 0.5 mL of medium per well. Immediately after seeding, cells were pre-treated for 30 minutes with DMSO or pan-caspase inhibitor—Q-VD-Oph. Next, compounds from stocks pre-diluted in DMSO were added directly to the cell culture medium in appropriate concentrations (the final DMSO concentration was 0.5%). Following the 6 hours treatment with the compounds, cells were collected from the plates and suspended in a lysis buffer (2% SDS, 50 mM Tris, pH 8.0, 100 U/ml Pierce Universal Nuclease for Cell Lysis, complete EDTA-free Protease Inhibitor Cocktail) and incubated on ice for 45 min. The amount of protein was determined via BCA assay, and an equal quantity of each sample was loaded on the precast gel for protein separation. After the antibody staining for MCL-1, α-tubulin, and cleaved forms of PARP and caspase 3, the membranes were washed and signals developed.
Densitometric values for MCL-1 were normalized to total protein level (stain-free membrane). [%] of protein reduction is calculated in comparison to the cells treated with DMSO, which stand for 0%.

CRBN = biological target: T2, CRBN (Homo sapiens, UniProt Q96SW2); experiment: NanoBRET In-cell CRBN Target Engagement Assay (live and lytic mode), NanoLuc CRBN HEK293 cells
T2 construct: host or cells: HEK293 (NanoLuc CRBN HEK293 cells)
T2 sequence (Q96SW2 whole entry): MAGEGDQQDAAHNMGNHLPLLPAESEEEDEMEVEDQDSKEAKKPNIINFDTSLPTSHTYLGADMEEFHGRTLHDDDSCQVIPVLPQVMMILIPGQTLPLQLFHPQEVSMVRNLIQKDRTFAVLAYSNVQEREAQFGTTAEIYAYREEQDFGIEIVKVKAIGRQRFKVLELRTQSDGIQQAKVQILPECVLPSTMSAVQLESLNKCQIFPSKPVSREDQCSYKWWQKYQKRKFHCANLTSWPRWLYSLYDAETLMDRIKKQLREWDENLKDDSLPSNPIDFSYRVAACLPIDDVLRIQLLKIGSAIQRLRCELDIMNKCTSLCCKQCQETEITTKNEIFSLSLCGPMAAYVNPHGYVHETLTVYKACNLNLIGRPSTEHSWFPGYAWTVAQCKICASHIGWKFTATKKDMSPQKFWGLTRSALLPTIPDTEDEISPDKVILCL
Description: Commercially available, NanoBRET In-cell CRBN Target Engagement Assay (NanoBRET CRBN TE Assay), which uses NanoLuc CRBN HEK293 cells and NanoBRET In-cell CRBN Tracer was used (N2910, N2912, PROMEGA) to determine the cell membrane permeability of prodrugs of MCL-1 degraders.
The assay was run in 96-well plate format (cat. 3600, Corning). NanoLuc CRBN HEK293 cells were treated with CRBN Tracer and compounds. Briefly, prepared was cell suspension (0.17×10^6cells/ml) in Opti-MEM without phenol red (Life Technologies). The cells were treated with CRBN Tracer (20× concentrated, 5 μl/well. For the live mode: 0.8 μM and for the lytic: 0.17 μM final concentration) or DMSO vehicle control (20× concentrated, 5 μl/well). Such prepared cells were seeded into the wells of 96-well plate on top of compounds (100× concentrated, 1 μl/well; 11-point 2-fold dilution) pre-plated on them with the help of Echo 555 acoustic dispenser (Labcyte). For the lytic mode assay, Digitonin (0.05 mg/ml, 10× concentrated, 10 μl/well) was added additionally. In the live mode assay, the plate was incubated at 37° C., 5% CO2 for 2 hours, and then at room temperature for 15 minutes to cool down. In the lytic mode assay, there was no incubation. The 3×Complete NanoBRET reagent (50 μl/well) was prepared according to the manufacturer's recommendations, appropriately for live and lytic mode. The plate was incubated for 2 minutes at room temperature and the luminescence and fluorescence readings followed using CLARIOstar Multimode Plate Reader (donor emission RLU—450 nm; acceptor emission RFU—610 nm). RBA value is an indicator of cell membrane permeability (the lower, the better) is calculated from absolute pIC50 (the negative log of the absolute IC50 value when converted to molar) of the live mode assay (pIC50 Live) and the lytic mode assay (pIC50 Lytic).

MV4-11 cells = experiment: Cell viability assay (CellTiter-Glo, CTG protocol), MV4-11; conditions: Homo sapiens, MV4-11 (MCL-1 dependent AML line), 24 hours incubation, 1% FBS, read-out: Average pCC50 by molecule MV4-11 (converted)
Excerpt: (§1) The effect of various compounds of the invention on the viability of MV4-11 and ARH-77 cell lines was investigated, using the CTG protocol described below.
(§2) MV4-11 cell lines are derived from acute myeloid leukaemia and it is described in the literature as a MCL-1 dependent cell line, as opposed to lymphoblast-like ARH-77 cell line, which is described as independent of MCL-1 (Tron A E et al. Nat Commun. 2018; 9: 5341; Caenepeel S et al. Cancer Discov. 2018 December; 8(12): 1582-1597).
(§3) Cells (MV4-11 or ARH-77) were seeded on […] in a growth medium with 1% FBS. Next, compound stocks were pre-diluted in DMSO and added directly to the cell culture media (final DMSO concentration: 0.5%). Compound concentrations used in this assay: 1/3 dilutions starting at 30 μM (9 to 12 points). After 24 hours of incubation, cell viability was evaluated using CellTiter-Gob® Luminescent Cell Viability Assay (Promega, cat #G7572). The luminescence signal was measured using a CLARIOstar Plus Multi-Mode Microplate Reader (574-590 nm).
(§4) Results were normalized to DMSO control. Collected data were analyzed using GraphPad Prism to calculate pCC50 values (i.e. the negative log of the CC50 value). CC50 (50% cytotoxic concentration) is the effective concentration of a cytotoxic compound, which produces 50% of the maximum possible cell death (i.e. the concentration of the compound which is required in order to reduce cell viability by 50%). CC50 is often used rather than IC50 in cell toxicity assays.

[1] = Cell viability assay (CellTiter-Glo, CTG protocol), ARH-77; conditions: human, ARH-77 cells (lymphoblast-like), ARH-77 (MCL-1 independent line), 24 hours incubation, 1% FBS, read-out: Average pCC50 by molecule ARH-77 (converted)
Excerpt: as §1, §2, §3, §4

MCL-1 protein degradation (Western blot, in words) (MCL-1 protein; MV4-11 cells, apoptosis not blocked): MCL-1 protein degradation
IC50 (CRBN; live mode, intact cells, 2 hours at 37° C., read-out: pIC50 (live) (converted)): 0.0398 µM
IC50 (CRBN; lytic mode, digitonin-lysed cells, no incubation, read-out: pIC50 (lytic) (converted)): 6.31 µM
SMILES: Cc1nn(C)c(C)c1-c1c(Cl)ccc2c(CCCOc3cccc4cc(F)ccc34)c(C(=O)OCOC(=O)C(C)(C)C)n(CCN3CCN(C(=O)COc4cccc5c4CN(C4CCC(=O)NC4=O)C5=O)CC3)c12 (centres unmarked) [Compound 69, (6-Chloro-1-{2-[4-(2-{[2-(2,6-dioxopiperidin-3-yl)-1-oxo-2,3-dihydro-1H-isoindol-4-yl]oxy}acetyl)piperazin-1-yl]ethyl}-3-{3-[(6-fluoronaphthalen-1-yl)oxy]propyl}-7-(1,3,5-trimethyl-1H-pyrazol-4-yl)-1H-indole-2-carbonyloxy)methyl 2,2-dimethylpropanoate]
MCL-1 protein abundance (MCL-1 protein; 1 nM, + Q-VD-Oph (pan-caspase inhibitor)): C (Amount of MCL-1 protein >50% and <75% calculated as % of DMSO control)
MCL-1 protein abundance (MCL-1 protein; 1 nM, without Q-VD-Oph): C (Amount of MCL-1 protein >50% and <75% calculated as % of DMSO control)
MCL-1 protein abundance (MCL-1 protein; 10 nM, + Q-VD-Oph (pan-caspase inhibitor)): B (Amount of MCL-1 protein >25% and ≤50% calculated as % of DMSO control)
MCL-1 protein abundance (MCL-1 protein; 10 nM, without Q-VD-Oph): B (Amount of MCL-1 protein >25% and ≤50% calculated as % of DMSO control)
MCL-1 protein abundance (MCL-1 protein; 100 nM, + Q-VD-Oph (pan-caspase inhibitor)): B (Amount of MCL-1 protein >25% and ≤50% calculated as % of DMSO control)
MCL-1 protein abundance (MCL-1 protein; 100 nM, without Q-VD-Oph): A (Amount of MCL-1 protein ≤25% calculated as % of DMSO control)
CC50 (MV4-11 cells): < 0.01 µM
CC50 at 24 h [1]: > 31.6 µM
